Measured values from patent publication US10189803B2, “Synthesis of therapeutic and diagnostic drugs centered on regioselective and stereoselective ring opening of aziridinium ions” (ILLINOIS INSTITUTE OF TECHNOLOGY, priority 2008, dated 2019).

Key:
[1] = Complexation kinetics with Lu(III), AAIII assay; format: physicochemical
Description: In summary, the novel decadentate ligand DEPA having both macrocyclic and acyclic metal binding moieties was efficiently prepared.
General procedure for complexation kinetics using AAIII. The kinetics experiments were performed as previously described. Ultrapure ammonium acetate (Aldrich, #431311) and hydrochloric acid solution (J. T. Baker, #JT6900-5) were purchased and used as received. All buffer solutions were prepared using deionized water (Milli-Q®, 18 MΩ). Metal-free stock solutions of all NH4OAc buffers (0.15 M, pH 4 or pH 4.5) were prepared using Chelex-100 resin (100-200 mesh, Bio-Rad Lab, Hercules, Calif.). Chelex resin (5 g) was added into the butter solution (100 mL) and the mixture was shaken for 1 h in a shaker (Eberbach), stored in the refrigerator overnight, and filtered through a Corning filter system (430513, pore size […]). A 15 μM AAIII solution in 0.15 M NH4OAc (pH 4 or pH 4.5) were prepared by adding AAIII (5.82 mg) to the NH4OAc buffer (500 mL). A solution of Bi(III)-AAIII (7.5 μM) was freshly prepared by mixing AAIII solution (15 μM, 50 mL) in 0.15 M NH4OAc (pH 4) with Bi(III) atomic absorption standard solution (79 μL, 995 μg/mL). A solution of Lu(III)-AAIII (1.8 μM) was freshly prepared by mixing AAIII solution ([…], 50 mL) in 0.15 M NH4OAc buffer (pH 4.5) with Lu(III) atomic absorption standard solution (15.4 μL, 1014 μg/ml). […]

[2] = Complexation kinetics with Bi(III), Arsenazo III (AAIII) spectroscopic competing reaction; format: physicochemical; settings: pH 4.0 (0.15M NH4OAc), 25° C., 1 hour
Description: The novel ligand DEPA was further evaluated for the complexation kinetics with other metals. The complexation kinetics of the ligand DEPA with Bi(III) was determined using a well-known spectroscopic competing reaction with AAIII according to a modification of the reported procedure (Kodama, M.; Koike, T.; Mahatma, A. B.; Kimura, E. Inorg. Chem. 1991, 30, 1270). AAIII is known to form a weak complex with many different metals, which produce a UV absorbance maximum between ˜652 nm. However, uncomplexed AAIII absorb little at this wavelength. When introduced to a solution containing the AAIII-metal complex, a chelate can compete with AAIII for the metal. The idea is that if the chelate is more capable of binding the metal than AAIII, the metal will dissociate from the AAIII complex and form a complex with the chelate leading to the decrease in the absorbance at the wavelength. The absorbance (A652) for AAIII-Bi(III) complex was measured in the absence and in the presence of the ligands over 1 hour at rt. The complexation kinetics of Bi(III) was determined at pH 4.0 as hydrolysis occurs at a higher pH. The complexation result of the new ligands studied herein was compared to that of DOTA.
General procedure for complexation kinetics using AAIII. The kinetics experiments were performed as previously described. […]

MRC-5 cells = assay: Antiproliferative activity in non-cancer lung fibroblast MRC-5 cells; format: cell-based, human; settings: FIG. 20
Description: The cytotoxicity of the chelators in the cancer cells was compared to their cytotoxicities in non-cancer cells using human lung fibroblast cell (MRC-5).
(§1) Cell culture Human cervix HeLa cell line was obtained from ATCC (Rockville, Md.) and cultured in minimum essential medium (MEM) with L-glutamine (2 mM), Earle's BSS and sodium bicarbonate (1.5 g/L), supplemented with 10% fetal bovine serum (FBS), non-essential amino acids (0.1 mM), sodium pyruvate (1 mM) and antibiotic/antimycotic solution in a humidified atmosphere with 5% CO2 at 37° C. Human colon cancer cell line HT29 was maintained in a humidified atmosphere with 5% CO2 at 37° C. in RPMI-1640 medium, containing 10% FBS with L-glutamine and antibiotic/antimycotic. Lung fibroblast MRC-5 cell line was obtained from ATCC (Rockville, Md.) and cultured in ATCC formulated EMEM, supplemented with 10% fetal bovine serum (FBS) in a humidified atmosphere with 5% CO2 at 37° C.
Antiproliferative Activity. […] Optical absorbance at 490 nm was then recorded with an enzyme-linked immunosorbent assay (ELISA) microtiter plate reader (Biotek). […] Antiproliferative activity of the test compounds was expressed as the fraction of optical densities of treated the cells relative to the untreated solvent controls.^31 The data were plotted in GraphPad Prizm 3.0. […]

Hela cells [3] = assay: Iron saturation experiment, Hela cell growth (MTS); format: cell-based, Human; settings: for effect on Hela cells saturated with Fe(III)-citrate (in words): chelator 50 μM, Fe(III)-citrate 50 μM
Description: Cytotoxicity of the new chelators was measured in the HeLa and HT29 cancer cells and compared to that of the clinically used iron chelators DFO and DTPA. […] The preliminary cell culture experiments were performed to see ifNETA is an effective cytotoxic agent. […] In order to investigate the effect of the chelators on the cellular growth, the Hela cancer cells saturated with Fe(III)-citrate (50 μM) were incubated with each of the chelators (50 μM).
Iron Saturation Experiment Hela Cells were inoculated onto 96-well plates at density of 2,000 per well in 0.1 mL complete medium and incubated for 24 h. […] Control samples containing no ferric citriate were also tested. […] After the incubation, cells proliferation rates were evaluated by MTS assay.

Hela cells [4] = assay: Antiproliferative activity, MTS assay, HeLa cells; format: cell-based, Human; settings: for IC50: 72 h incubation, MTS; for cytotoxicity in HeLa cells over a series of concentrations (in words): FIG. 18
Description: as §1, with “Human colon cancer cell line HT29 was maintained in a humidified atmosphere with 5% CO2 at 37° C. in RPMI-1640 medium, containing 10% FBS with L-glutamine and antibiotic/antimycotic.” left out
(§2) Antiproliferative Activity. Cells were seeded onto 96-well plate at density of 2,000 cells for Hela cells or 5,000 cells for HT29 cells or 5,000 cells for MRC-5 per well in 0.1 mL complete medium and allowed to attach for 24 h. Varying concentrations of the test compounds in the final volume of 0.1 mL complete medium were then added in at least five series dilutions and incubated for 72 h. To measure cell proliferation, the Cell Titer 96 aqueous nonreactive cell proliferation assay (Promega Life Sciences, Madison, Wis.) was used according to the manufacturer's instructions. Briefly, MTS (2 mg/mL) and PMS (0.92 mg/ml) were mixed in a ratio of 20:1. An aliquot (20 μL) of the MTS/PMS mixture was added into each well, and the plate was incubated for 3 h at 37° C. Optical absorbance at 490 nm was then recorded with an enzyme-linked immunosorbent assay (ELISA) microtiter plate reader (Biotek). Each experiment was done at least in triplicate. Antiproliferative activity of the test compounds was expressed as the fraction of optical densities of treated the cells relative to the untreated solvent controls.^31 The data were plotted in GraphPad Prizm 3.0. Nonlinear regression analysis was used to determine IC50 values.
Cell culture. Human cervix HeLa cell line was obtained from ATCC (Rockville, Md.) and cultured in minimum essential medium (MEM) with L-glutamine (2 mM), Earle's BSS and sodium bicarbonate (1.5 g/L), supplemented with 10% fetal bovine serum (FBS), non-essential amino acids (0.1 mM), sodium pyruvate (1 mM) and antibiotic/antimycotic solution in a humidified atmosphere with 5% CO2 at 37° C.
as §2, with “activity.” for “Activity.”, “cells” for “cells or 5,000 cells for MRC-5”, “controls.” for “controls.^31”

HT29 cells = assay: Antiproliferative activity, MTS assay, HT29 cells; format: cell-based, Human; settings: 72 h incubation
Method in brief: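 HeLa cells (2,000/well) and HT29 cells (5,000/well) were allowed to attach for 24 h, then exposed to at least five compound dilutions for 72 h. Viability was read by MTS/PMS reduction (3 h, 37° C, A490). IC50 was obtained by nonlinear regression of OD as a fraction of solvent control, at least in triplicate.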

[5] = T1 relaxivity of Gd(III) complexes (Bruker mq60 NMR analyzer); format: physicochemical; settings: aqueous Gd(III) complexes, ~pH 7, 60 MHz
Description: Gd(NE3TA) and Gd(NE3TA-Bn) were synthesized by reacting GdCl3 with NE3TA and NE3TA-Bn, respectively. NE3TA or NE3TA-Bn were mixed with GdCl3 in a molar ratio of 1 to 0.9, and the resulting mixture at pH 7 was heated to 90° C. and stirred until no free Gd(III) ions were detected using an ArsenazoIII (AAIII) assay. Relaxivity of the aqueous […] complexes (pH 7) was measured on a Bruker MQ60 NMR analyzer, and the concentration of the Gd(III) complexes was measured by ICP-MS. […] NE3TA was successfully conjugated with the most common bile acid, cholic acid (FIG. 41).
(§3) Relaxivity Measurements. Relaxivity measurements were acquired by taking the slope of a plot of 1/T1 (s^−1) versus concentration (mM). The longitudinal water proton relaxation times (T1) were determined using a Bruker mq60 NMR (Bruker Canada, Milton, ON, Canada) analyzer operating at 59.97 MHz and 37° C. The agent was added to Millipore water and serially diluted by 0.5 to give a series of 5 concentrations (500 μL total volume) for each relaxivity trial. The T1 was determined using an inversion recovery pulse sequence with 10 different pulse separations per sample, 4 repetitions per echo time, phase cycling, and a recycle delay that is ≥5 times the T1 of each given sample. All curves were fit using a monoexponential curve fitting formula.
Relaxivity of the aqueous Gd(III) complexes (˜pH 7) were measured on a Bruker MQ60 NMR analyzer, and the concentration of the Gd(III) complexes were measured by ICP-MS. […] As mentioned above, the on and off binding to Gd(III) of one of the pendant coordinates would have resulted enhanced relaxivity of Gd(C-NETA) compared to Gd(C-DOTA). Among the evaluated Gd(III) complexes, Gd(C-NE3TA) gives the highest T1 relaxivity at 60 MHz, probably due to increase in q. The relaxation rates for the Gd(III) chelates are dominated by the inner-sphere dipolar coupling between the coordinated water molecule and the paramagnetic Gd(III). The measured relaxivities arise from the exchange between the coordinated water molecule and the surrounding water molecules in solution. […] No indication of Gd(III) dissociation is evident from the relaxivity data, which is in agreement with the in vitro serum stability and in vivo biodistribution studies.
as §3, with “The T1 relaxivity was determined” for “The T1 was determined”

O=C(O)CN1CCN(CCN(CC(=O)O)CC(=O)O)CCN(CC(=O)O)CCN(CC(=O)O)CC1 [DEPA, {7-[2-(Bis-carboxymethyl-amino)-ethyl]-4,10-bis-carboxymethyl-1,4,7,10-tetraazacyclo-dodec-1-yl}-acetic acid]
complexation with Lu(III) (in words) [1]: slow in binding | complexation with Bi(III) (absorbance at 652 nm vs time, in words) [2]: quite prompt and substantial binding

O=C(O)CN(CCN(CC(=O)O)CC(=O)O)CCN(CC(=O)O)CC(=O)O [DTPA, diethylenepentaacetic acid, reference compound]
viability of normal MRC-5 cells compared to cancer cells (in words) (MRC-5 cells): much enhanced viability of normal cells | effect on Hela cells saturated with Fe(III)-citrate (in words) (Hela cells [3]): almost no anti-proliferative activity | HeLa cell survival (in words) (Hela cells [3]; free ligand 50 μM, no ferric citrate): almost all HeLa cells incubated with DTPA (50 μM) survived | IC50 (Hela cells [4]): 264 ± 36.2 µM | cytotoxicity in HeLa cells over a series of concentrations (in words) (Hela cells [4]): almost no cytotoxicity | IC50 (HT29 cells): 39.1 ± 4 µM

CC(=O)N(O)CCCCCNC(=O)CCC(=O)N(O)CCCCCNC(=O)CCC(=O)N(O)CCCCCN [DFO, desferoxamine, reference compound]
viability of normal MRC-5 cells compared to cancer cells (in words) (MRC-5 cells): little change in cell viability | effect on Hela cells saturated with Fe(III)-citrate (in words) (Hela cells [3]): modest increase in cell viability | IC50 (Hela cells [4]): > 50 µM | cytotoxicity in HeLa cells over a series of concentrations (in words) (Hela cells [4]): not concentration-dependent | IC50 (HT29 cells): 36.1 ± 1.4 µM

O=C(O)CN1CCN(CC(=O)O)CCN(CC(=O)O)CCN(CC(=O)O)CC1 [DOTA, reference compound]
complexation with Bi(III) (absorbance at 652 nm vs time, in words) [2]: sluggish complexation | T1 relaxivity of Gd(III) complexes of bifunctional ligands [5]: 3.96 mM⁻¹ s⁻¹
